Read-outs that look alike come from different tables or passages of the source.
Key:
PPARα [1] = target: T1, PPARα (Homo sapiens, UniProt Q07869); assay: Cotransfection (CTF) assay, PPARα GAL4 chimeric system in CV-1 cells; format: cell-based; details: for Eff (α): relative to reference molecule
T1 construct: For PPARα, a GAL4 chimeric system is the standard CTF assay performed
T1 sequence (Q07869 200-468 limits assumed): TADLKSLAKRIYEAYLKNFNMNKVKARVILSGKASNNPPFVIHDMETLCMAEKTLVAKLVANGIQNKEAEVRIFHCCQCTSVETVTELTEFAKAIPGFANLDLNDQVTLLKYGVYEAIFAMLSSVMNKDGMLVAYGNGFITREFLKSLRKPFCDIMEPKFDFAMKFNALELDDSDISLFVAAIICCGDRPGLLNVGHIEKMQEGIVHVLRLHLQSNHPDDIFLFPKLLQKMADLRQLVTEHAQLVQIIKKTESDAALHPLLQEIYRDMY
From the text: (§1) PPARγ or PPARα are constitutively expressed using plasmids containing the cytomegalovirus promoter. Reporter plasmids for the PPARγ CTF assays contain PPREs from the following genes: acyl coA oxidase (AOX); apolipoprotein A1 (ApoA1); lipoprotein lipase (LPL); or enoyl-CoA hydratase/3-hydroxyacyl-CoA dehydrogenase (HD) plus the thymidine kinase (TK) promoter upstream of the luciferase reporter cDNA. A PPARγ […] galactosidase (GAL4) chimeric system is also used. For PPARα, a GAL4 chimeric system is the standard CTF assay performed. All assays are done in CV-1 cells. Compounds are tested in full log dilution, from 0.1 nM to 10 μM in duplicate. Percent efficacies are determined relative to reference molecules with the efficacy value reflecting the greatest amount of agonist activity achieved in the CTF assay for each compound. Median effective concentration (EC50) values are determined by computer fit to a concentration-response curve. An EC50 value is not calculated if the efficacy for the compound is <20%. Reported values represent means from two to nine separate experiments.

PPARγ [2] = target: T2, PPARγ (Homo sapiens, UniProt P37231); assay: Cotransfection (CTF) / response element assays, PPARγ in CV-1 cells; format: cell-based; parameters: Eff (γ); HD Eff; other: response element assay, HD PPRE reporter; LPL Eff; other: response element assay, LPL PPRE reporter; ApoA1 Eff; other: response element assay, ApoA1; PPARγ or PPARα are constitutively expressed using plasmids containing the cytomegalovirus promoter; details: for Eff (γ): Table 1, relative to PPARγ full agonist set at 100%
T2 sequence (P37231 238-505 limits assumed): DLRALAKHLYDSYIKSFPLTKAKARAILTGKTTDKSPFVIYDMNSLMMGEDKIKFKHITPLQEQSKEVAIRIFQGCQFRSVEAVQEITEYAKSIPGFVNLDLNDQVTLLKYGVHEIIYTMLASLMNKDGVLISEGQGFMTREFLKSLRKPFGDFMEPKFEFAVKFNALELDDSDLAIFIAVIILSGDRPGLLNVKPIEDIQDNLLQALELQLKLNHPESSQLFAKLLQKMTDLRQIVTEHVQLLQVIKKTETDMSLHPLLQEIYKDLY
From the text: as §1

[3] = target: T3, PPARγ ligand binding domain / peptide C33 (Homo sapiens, UniProt P37231); assay: Co-factor recruitment assay (mammalian-2-hybrid, CV-1 cells), peptide C33; format: cell-based; details: for C33 Eff: relative to a PPARγ full agonist
T3 construct: expressed in transfected cells; host or cells: CV-1 cells
T3 sequence (P37231 238-503 limits assumed): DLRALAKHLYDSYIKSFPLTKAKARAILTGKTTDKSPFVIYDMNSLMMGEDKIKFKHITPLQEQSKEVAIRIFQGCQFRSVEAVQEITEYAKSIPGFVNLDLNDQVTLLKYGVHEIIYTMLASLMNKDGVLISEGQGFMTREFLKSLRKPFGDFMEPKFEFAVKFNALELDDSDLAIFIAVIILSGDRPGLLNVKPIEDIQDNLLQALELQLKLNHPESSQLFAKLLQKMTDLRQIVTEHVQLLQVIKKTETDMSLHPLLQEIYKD
From the text: (§2) A mammalian-2-hybrid assay system in CTF format is done in CV-1 cells. The following plasmids are used: a mammalian expression vector encoding a fusion of the GAL4 DNA binding domain with the PPARγ ligand binding domain; a mammalian expression vector encoding a fusion of the VP16 transactivation domain with the nuclear receptor interaction domain of the respective co-activators: CREB-binding protein (CBP), peroxisome proliferator-activated receptor gamma coactivator-1 (PGC-1), activating signal cointegrator-2 (ASC-2), thyroid hormone receptor-activated protein complex (TRAP220), and the peptide C33; and a reporter plasmid (multimerized GAL4 binding sites/minimal TK promoter driving a luciferase cDNA). Cells are transfected in batch format and treated with compound (full log dilution from 0.1 nM to 10 μM) or vehicle for 24 hours. Subsequently, the cells are lysed and luciferase activity is measured. Luciferase activity serves as the endpoint for interaction between co-activator and receptor. The data are presented as % efficacy relative to a PPARγ full agonist and represent means from four to six separate experiments.

PPARα [4] = target: T4, PPARα (Homo sapiens, UniProt Q07869); assay: Competitive displacement binding assay (SPA), PPARα; details: PPARα/RXRα
T4 construct: made in house; host or cells: baculovirus expression system
Description: (§3) Binding assays are performed using scintillation proximity assay (SPA) technology, PPAR receptors, and corresponding radiolabeled ligands. PPARα and PPARγ along with their heterodimeric partner, retinoid X receptor α, are each produced using a baculovirus expression system. Biotinylated oligonucleotides containing PPAR response elements (PPREs) are used to couple the corresponding receptor dimers to yttrium silicate streptavidin-coated SPA beads. PPARγ- and PPARα-specific ligands are labeled with tritium and used in the appropriate corresponding assays. The IC50 values (compound concentration which causes 50% inhibition) for each competing compound are calculated after deduction of non-specific binding (measured in the presence of 10 μM unlabeled ligand). Compounds are evaluated using an 11-point dose response curve with concentrations ranging from 0.169 nM to 10 μM. Reported values represent means from one to seven separate experiments.
T4 sequence (Q07869 whole entry, the tested form may be a part): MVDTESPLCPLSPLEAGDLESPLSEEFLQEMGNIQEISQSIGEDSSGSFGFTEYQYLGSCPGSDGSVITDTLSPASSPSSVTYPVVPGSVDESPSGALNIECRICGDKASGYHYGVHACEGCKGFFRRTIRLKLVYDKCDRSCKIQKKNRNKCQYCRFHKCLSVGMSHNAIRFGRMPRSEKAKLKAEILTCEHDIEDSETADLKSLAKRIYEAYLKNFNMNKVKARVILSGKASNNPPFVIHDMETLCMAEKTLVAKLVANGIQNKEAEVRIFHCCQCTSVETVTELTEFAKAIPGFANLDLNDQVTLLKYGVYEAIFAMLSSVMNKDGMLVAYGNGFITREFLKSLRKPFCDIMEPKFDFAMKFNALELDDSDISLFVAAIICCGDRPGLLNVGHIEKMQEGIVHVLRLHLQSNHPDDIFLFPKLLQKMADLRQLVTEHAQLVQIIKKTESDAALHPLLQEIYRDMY
T4 sequence (P19793 whole entry, further chain, the tested form may be a part): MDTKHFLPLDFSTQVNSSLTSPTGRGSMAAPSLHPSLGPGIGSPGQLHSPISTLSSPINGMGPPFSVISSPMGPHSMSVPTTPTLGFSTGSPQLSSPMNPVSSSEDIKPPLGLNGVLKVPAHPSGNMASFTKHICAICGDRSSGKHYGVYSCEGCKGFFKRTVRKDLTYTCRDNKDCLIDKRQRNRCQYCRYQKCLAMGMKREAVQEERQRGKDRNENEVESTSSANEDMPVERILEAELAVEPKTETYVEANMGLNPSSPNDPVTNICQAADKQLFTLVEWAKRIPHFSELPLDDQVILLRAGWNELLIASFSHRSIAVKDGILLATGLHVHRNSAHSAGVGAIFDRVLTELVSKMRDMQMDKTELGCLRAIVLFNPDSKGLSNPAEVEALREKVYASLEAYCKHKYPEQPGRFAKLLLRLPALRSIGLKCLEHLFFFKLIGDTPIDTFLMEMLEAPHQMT

PPARγ [5] = target: T2, PPARγ; assay: Cotransfection (CTF) / response element assays, PPARγ in CV-1 cells; format: cell-based; parameters: rows headed: PPARγ efficacy (% efficacy compared to a PPARγ full agonist set at 100%); PPARγ or PPARα are constitutively expressed using plasmids containing the cytomegalovirus promoter; details: CV-1; range over CTF assays of Tables 1 and 3; read-out: PPARγ efficacy (% efficacy compared to a PPARγ full agonist set at 100%)
From the text: as §1

PPARγ [6] = target: T2, PPARγ; assay: as above; format: cell-based; parameters: Gla4 Eff; other: response element assay, GAL4 chimeric system; A PPARγ bacterial galactosidase (GAL4) chimeric system is also used; details: response element assay, GAL4 chimeric system; for EC50: read-out: Gla4 EC50
From the text: as §1

diabetic (db/db) mice = assay: Glucose, triglyceride, hematocrit levels and body weight gain in diabetic mice; details: for plasma glucose normalization / plasma triglycerides normalization: db/db mice
Description: Five-week-old male diabetic (db/db) mice (Harlan Laboratories, Indianapolis, Ind.) are housed in plastic cages (n=6/cage; cage size is approximately 10×20×8″ with aspen chip bedding) with free access to water (sipper system—city tap water) and food (Purina 5008). After two weeks of acclimation, animals (7 weeks of age) are bled on day 0 at 1000-1200 h (lights on 0600 h) and assigned to treatment groups (n=5 or 6) based on starting glucose values. Compound or vehicle only treatments are administered daily by oral gavage at approximately 0730 h. Body weights are measured at the beginning (day 0) and end (day 7 or day 14) of the studies. Blood is collected in heparinized tubes from the tail of nonfasted animals two to three hours after the last dose. Hematocrit, glucose and triglycerides levels are then determined. The reported values for glucose and triglyceride levels represent the % of normalization compared to the lean littermate values set at 100% or glucose normalization calculated based on a normal glucose level of 250 mg/dl. Statistical significance between experimental groups is assessed using a two-sided student's t-test.
Plasma glucose and hematocrit levels along with body weight are measured before the study began (day 0) and at the end of the study (day 14).
Plasma glucose, triglyceride, and hematocrit levels along with body weight are measured before the study began (day 0) and at the end of the study (day 7).

[7] = target: T5, PPARγ ligand binding domain / ASC-2 (Homo sapiens, UniProt P37231); assay: Co-factor recruitment assay (mammalian-2-hybrid, CV-1 cells), ASC-2; format: cell-based; details: for EC50: read-out: ASC2 EC50; for ASC2 Eff: relative to a PPARγ full agonist
T5 construct: expressed in transfected cells; host or cells: CV-1 cells
From the text: as §2

[8] = target: T6, PPARγ ligand binding domain / PGC-1 (Homo sapiens, UniProt P37231); assay: Co-factor recruitment assay (mammalian-2-hybrid, CV-1 cells), PGC-1; format: cell-based; details: for EC50: read-out: PGC1 EC50; for PGC1 Eff: relative to a PPARγ full agonist
T6 construct: expressed in transfected cells; host or cells: CV-1 cells
T6 sequence (P37231 238-503 limits assumed): T3 sequence (P37231 238-503 limits assumed)
T6 sequence (Q9UBK2 1-798 partner): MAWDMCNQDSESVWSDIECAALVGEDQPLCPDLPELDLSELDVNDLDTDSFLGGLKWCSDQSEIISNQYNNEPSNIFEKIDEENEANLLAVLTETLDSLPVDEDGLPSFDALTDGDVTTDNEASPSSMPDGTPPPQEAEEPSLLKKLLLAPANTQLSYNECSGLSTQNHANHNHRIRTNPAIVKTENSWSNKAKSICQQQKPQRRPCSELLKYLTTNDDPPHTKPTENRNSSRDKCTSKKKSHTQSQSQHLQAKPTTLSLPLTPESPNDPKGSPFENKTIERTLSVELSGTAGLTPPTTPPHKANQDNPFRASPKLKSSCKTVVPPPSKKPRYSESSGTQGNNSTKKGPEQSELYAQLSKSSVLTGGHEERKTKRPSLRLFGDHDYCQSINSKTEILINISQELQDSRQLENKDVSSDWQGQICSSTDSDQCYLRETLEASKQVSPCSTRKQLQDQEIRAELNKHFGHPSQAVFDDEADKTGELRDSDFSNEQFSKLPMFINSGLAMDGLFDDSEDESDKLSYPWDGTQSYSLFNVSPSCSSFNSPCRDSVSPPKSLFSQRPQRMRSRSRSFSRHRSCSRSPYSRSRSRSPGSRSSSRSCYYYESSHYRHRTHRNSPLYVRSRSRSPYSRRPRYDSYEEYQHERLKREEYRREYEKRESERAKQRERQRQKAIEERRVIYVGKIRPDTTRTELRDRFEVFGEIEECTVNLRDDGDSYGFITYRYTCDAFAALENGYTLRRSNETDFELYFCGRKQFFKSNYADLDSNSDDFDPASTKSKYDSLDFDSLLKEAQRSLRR
From the text: as §2

[9] = target: T7, PPARγ ligand binding domain / CREB-binding protein (CBP) (Homo sapiens, UniProt P37231); assay: Co-factor recruitment assay (mammalian-2-hybrid, CV-1 cells), CBP; format: cell-based; details: for CBP Eff: relative to a PPARγ full agonist
T7 construct: expressed in transfected cells; host or cells: CV-1 cells
From the text: as §2

[10] = target: T8, PPARγ ligand binding domain / TRAP220 (Homo sapiens, UniProt P37231); assay: Co-factor recruitment assay (mammalian-2-hybrid, CV-1 cells), TRAP220; format: cell-based; details: for TRAP220 Eff: relative to a PPARγ full agonist
T8 construct: expressed in transfected cells; host or cells: CV-1 cells
From the text: as §2

PPARγ [11] = target: T9, PPARγ (Homo sapiens, UniProt P37231); assay: Competitive displacement binding assay (SPA), PPARγ; details: PPARγ/RXRα
T9 construct: made in house; host or cells: baculovirus expression system
Description: as §3
T9 sequence (P37231 whole entry): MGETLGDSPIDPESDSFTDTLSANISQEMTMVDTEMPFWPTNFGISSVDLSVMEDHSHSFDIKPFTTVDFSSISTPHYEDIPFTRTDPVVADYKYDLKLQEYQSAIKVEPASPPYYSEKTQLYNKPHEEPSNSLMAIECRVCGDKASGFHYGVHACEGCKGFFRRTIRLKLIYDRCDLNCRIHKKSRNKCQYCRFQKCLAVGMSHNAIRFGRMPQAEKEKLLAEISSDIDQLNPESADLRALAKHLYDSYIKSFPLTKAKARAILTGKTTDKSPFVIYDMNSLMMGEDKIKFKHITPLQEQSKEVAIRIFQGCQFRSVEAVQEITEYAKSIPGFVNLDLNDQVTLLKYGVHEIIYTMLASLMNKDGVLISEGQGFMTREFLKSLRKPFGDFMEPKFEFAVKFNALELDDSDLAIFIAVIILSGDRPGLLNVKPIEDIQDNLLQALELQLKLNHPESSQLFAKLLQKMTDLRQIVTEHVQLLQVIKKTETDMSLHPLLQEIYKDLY
T9 sequence (P19793 whole entry, further chain): as the sequence (P19793 whole entry, further chain, the tested form may be a part) above

[12] = CTF, Table 1, read-out: EC50 (γ)
[13] = response element assay, HD PPRE reporter
[14] = response element assay, HD PPRE reporter, read-out: HD EC50
[15] = response element assay, LPL PPRE reporter
[16] = response element assay, LPL PPRE reporter, read-out: LPL EC50
[17] = 3 mg/kg/day oral gavage, 7 days
[18] = 10 mg/kg/day oral gavage, 7 days
[19] = 30 mg/kg/day oral gavage, 7 days
[20] = 100 mg/kg/day oral gavage, 7 days

T8 sequence (Q15648 whole entry partner, species assumed, one chain of several, the tested form may be a part): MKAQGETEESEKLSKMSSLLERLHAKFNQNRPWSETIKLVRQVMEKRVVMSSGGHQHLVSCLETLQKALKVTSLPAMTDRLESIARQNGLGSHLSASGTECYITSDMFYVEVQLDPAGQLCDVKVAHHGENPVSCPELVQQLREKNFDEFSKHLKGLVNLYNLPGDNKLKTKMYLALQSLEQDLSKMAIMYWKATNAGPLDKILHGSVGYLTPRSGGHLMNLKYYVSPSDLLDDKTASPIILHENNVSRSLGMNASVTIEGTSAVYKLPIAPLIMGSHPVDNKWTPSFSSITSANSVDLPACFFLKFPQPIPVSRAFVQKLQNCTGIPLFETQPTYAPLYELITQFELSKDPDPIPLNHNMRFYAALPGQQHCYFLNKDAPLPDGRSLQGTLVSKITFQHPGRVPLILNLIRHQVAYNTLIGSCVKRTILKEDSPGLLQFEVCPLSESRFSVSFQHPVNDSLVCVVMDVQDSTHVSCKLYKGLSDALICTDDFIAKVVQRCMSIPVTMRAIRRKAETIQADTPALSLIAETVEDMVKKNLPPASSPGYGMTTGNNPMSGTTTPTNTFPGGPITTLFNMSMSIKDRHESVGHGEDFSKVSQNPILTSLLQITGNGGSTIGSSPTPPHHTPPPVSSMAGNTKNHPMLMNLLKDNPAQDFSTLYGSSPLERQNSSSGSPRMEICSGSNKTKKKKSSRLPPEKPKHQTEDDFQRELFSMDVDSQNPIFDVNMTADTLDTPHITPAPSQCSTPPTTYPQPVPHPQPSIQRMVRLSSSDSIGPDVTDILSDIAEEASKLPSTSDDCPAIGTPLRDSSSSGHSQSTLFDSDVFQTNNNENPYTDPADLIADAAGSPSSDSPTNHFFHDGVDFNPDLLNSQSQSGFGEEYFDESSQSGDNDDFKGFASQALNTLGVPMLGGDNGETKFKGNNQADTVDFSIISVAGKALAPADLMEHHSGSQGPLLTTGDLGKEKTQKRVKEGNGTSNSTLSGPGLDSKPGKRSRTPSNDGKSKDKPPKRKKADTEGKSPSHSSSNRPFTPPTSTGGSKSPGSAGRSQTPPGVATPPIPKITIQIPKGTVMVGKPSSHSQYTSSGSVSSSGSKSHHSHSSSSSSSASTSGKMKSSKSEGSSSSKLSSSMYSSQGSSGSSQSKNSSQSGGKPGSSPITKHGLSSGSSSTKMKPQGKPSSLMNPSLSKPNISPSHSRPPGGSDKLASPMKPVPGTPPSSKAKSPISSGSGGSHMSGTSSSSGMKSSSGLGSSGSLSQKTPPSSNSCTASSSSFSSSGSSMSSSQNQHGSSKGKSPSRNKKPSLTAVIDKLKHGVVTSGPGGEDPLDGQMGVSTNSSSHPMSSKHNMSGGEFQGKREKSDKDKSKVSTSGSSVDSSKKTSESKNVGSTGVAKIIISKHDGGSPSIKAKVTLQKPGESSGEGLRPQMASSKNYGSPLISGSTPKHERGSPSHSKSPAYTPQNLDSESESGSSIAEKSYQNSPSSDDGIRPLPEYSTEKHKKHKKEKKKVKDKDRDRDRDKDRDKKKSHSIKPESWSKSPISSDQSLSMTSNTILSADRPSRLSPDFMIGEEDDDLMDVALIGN
T5 sequence (Q14686 whole entry partner, species assumed, one chain of several, the tested form may be a part): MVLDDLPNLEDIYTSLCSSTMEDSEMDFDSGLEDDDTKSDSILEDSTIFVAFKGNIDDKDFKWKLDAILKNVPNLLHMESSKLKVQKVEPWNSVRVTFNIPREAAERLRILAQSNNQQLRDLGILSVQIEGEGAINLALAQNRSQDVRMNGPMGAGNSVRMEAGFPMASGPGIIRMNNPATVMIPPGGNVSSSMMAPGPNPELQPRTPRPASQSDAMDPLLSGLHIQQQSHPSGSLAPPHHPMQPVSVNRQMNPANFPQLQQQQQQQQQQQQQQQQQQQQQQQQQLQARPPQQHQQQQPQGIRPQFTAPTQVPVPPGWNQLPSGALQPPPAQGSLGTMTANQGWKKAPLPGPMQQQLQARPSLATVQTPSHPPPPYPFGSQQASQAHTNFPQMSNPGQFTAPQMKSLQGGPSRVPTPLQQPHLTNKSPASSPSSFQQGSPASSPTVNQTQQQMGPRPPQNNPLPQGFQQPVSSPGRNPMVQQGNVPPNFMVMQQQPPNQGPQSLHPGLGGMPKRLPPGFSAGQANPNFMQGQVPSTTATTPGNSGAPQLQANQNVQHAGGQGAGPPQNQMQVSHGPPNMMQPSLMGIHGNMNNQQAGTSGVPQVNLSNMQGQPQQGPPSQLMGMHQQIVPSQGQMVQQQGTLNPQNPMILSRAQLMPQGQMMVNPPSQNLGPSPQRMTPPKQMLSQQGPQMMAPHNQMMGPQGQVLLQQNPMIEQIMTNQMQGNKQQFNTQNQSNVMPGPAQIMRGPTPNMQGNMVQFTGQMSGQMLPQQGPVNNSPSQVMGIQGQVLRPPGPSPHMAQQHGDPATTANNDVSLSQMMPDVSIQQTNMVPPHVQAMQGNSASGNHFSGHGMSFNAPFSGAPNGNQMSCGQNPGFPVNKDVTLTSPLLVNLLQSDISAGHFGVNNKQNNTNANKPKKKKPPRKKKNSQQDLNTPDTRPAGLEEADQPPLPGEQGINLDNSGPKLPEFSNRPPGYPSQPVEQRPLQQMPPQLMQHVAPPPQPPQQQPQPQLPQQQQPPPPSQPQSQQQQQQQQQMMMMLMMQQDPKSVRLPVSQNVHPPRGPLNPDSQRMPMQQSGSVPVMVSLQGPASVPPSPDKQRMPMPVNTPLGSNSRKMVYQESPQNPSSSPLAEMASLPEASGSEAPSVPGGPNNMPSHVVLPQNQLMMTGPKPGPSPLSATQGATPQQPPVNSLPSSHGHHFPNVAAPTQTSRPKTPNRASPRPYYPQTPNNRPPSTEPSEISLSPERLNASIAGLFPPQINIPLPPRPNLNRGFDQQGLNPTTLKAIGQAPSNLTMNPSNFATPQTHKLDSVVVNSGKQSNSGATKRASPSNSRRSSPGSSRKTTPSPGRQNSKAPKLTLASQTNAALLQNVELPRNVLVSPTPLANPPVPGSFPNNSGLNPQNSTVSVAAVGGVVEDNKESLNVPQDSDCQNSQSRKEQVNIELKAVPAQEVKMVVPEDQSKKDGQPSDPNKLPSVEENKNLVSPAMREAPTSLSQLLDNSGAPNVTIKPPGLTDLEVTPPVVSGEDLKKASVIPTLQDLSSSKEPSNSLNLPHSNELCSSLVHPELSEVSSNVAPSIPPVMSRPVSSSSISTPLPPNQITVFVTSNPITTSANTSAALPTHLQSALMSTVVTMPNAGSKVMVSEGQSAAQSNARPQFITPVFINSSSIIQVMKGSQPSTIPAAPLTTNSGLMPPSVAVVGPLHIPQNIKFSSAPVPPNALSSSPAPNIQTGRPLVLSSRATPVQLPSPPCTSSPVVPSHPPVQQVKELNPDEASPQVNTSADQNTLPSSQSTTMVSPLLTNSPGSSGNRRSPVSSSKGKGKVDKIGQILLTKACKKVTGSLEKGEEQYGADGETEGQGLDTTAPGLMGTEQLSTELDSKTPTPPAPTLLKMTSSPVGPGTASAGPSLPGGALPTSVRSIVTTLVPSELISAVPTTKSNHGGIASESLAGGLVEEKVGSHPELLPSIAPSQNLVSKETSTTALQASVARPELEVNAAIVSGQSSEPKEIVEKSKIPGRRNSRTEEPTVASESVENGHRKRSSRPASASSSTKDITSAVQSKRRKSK

SMILES	EC50 (PPARα [1]) [µM]	Eff (α) (PPARα [1]) [% efficacy]	Eff (γ) (PPARγ [2]; CTF) [% efficacy]	EC50 (PPARγ [2]; [12]) [µM]	HD Eff (PPARγ [2]; [13]) [% efficacy]	EC50 (PPARγ [2]; [14]) [µM]	LPL Eff (PPARγ [2]; [15]) [% efficacy]	EC50 (PPARγ [2]; [16]) [µM]	EC50 [3] [µM]	C33 Eff [3] [% efficacy]	IC50 (PPARα [4]) [µM]	Emax (PPARγ [5]) [%]	Gla4 Eff (PPARγ [6]) [% efficacy]	EC50 (PPARγ [6]) [µM]	EC50 [7] [µM]	ASC2 Eff [7] [% efficacy]	EC50 [8] [µM]	PGC1 Eff [8] [% efficacy]	EC50 [9] [µM]	CBP Eff [9] [% efficacy]	other results
COc1ccc(CCNC(=O)COc2ccc(C[C@H](OC)C(=O)O)cc2)cc1 [formula III, (2S)-3-(4-{[2-(4-methoxy-phenyl)-ethylcarbamoyl]-methoxy}-phenyl)-2-methoxy-propionic acid]	1.3	43	60	1.89	54	1.14	86	1.42	3.01	13	0.113	30 to 86	30	1.98	1.38	15	2.07	24	1.92	15	plasma glucose normalization (diabetic (db/db) mice; 1 mg/kg/day oral gavage, 14 days): 42.7 % normalization; plasma glucose normalization (diabetic (db/db) mice; 3 mg/kg/day oral gavage, 14 days): 68.3 % normalization; plasma glucose normalization (diabetic (db/db) mice; 10 mg/kg/day oral gavage, 14 days): 96.1 % normalization; plasma glucose normalization (diabetic (db/db) mice; 30 mg/kg/day oral gavage, 14 days): 109.3 % normalization; dose-dependent reduction in hematocrit levels, indicative of plasma volume expansion (diabetic (db/db) mice; db/db mice, 1, 3, 10, 30 mg/kg/day oral gavage, 14 days): not seen; melting point: 97 to 98 °C; TRAP220 efficacy [10]: Eff < 20; TRAP220 Eff [10]: 7 % efficacy; IC50 (PPARγ [11]): 0.052 µM
CCOc1ccc(CCNC(=O)COc2ccc(C[C@H](OC)C(=O)O)cc2)cc1 [formula V, (S)-3-(4-{[2-(4-ethoxy-phenyl)-ethylcarbamoyl]-methoxy}-phenyl)-2-methoxy-propionic acid]	1.81	39	60	1.01	58	1.04	80	0.466	2.89	43	0.36	39 to 80	39	1.91	2.87	33	2.6	24	2.64	18	ApoA1 Eff (PPARγ [2]; response element assay, ApoA1 PPRE reporter): 39 % efficacy; EC50 (PPARγ [2]; response element assay, ApoA1 PPRE reporter, read-out: ApoA1 EC50): 0.335 µM; plasma glucose normalization (diabetic (db/db) mice; [17]): 61.2 % normalization; plasma triglycerides normalization (diabetic (db/db) mice; [17]): 108.1 % normalization; plasma glucose normalization (diabetic (db/db) mice; [18]): 87.5 % normalization; plasma triglycerides normalization (diabetic (db/db) mice; [18]): 108.1 % normalization; plasma glucose normalization (diabetic (db/db) mice; [19]): 105.6 % normalization; plasma triglycerides normalization (diabetic (db/db) mice; [19]): 121.1 % normalization; plasma glucose normalization (diabetic (db/db) mice; [20]): 110.3 % normalization; plasma triglycerides normalization (diabetic (db/db) mice; [20]): 130.6 % normalization; EC50 [10]: 3.06 µM; TRAP220 Eff [10]: 16 % efficacy; IC50 (PPARγ [11]): 0.03 µM
